From patent US20260103726A1, “CONTROL SYSTEM FOR INDUCING TRANSGENE EXPRESSION BY MEANS OF D-2-HG, AND CONSTRUCTION METHOD THEREFOR AND USES THEREOF” (priority 2023, published 2026)

What was measured:
HEK293FT cells = assay: HGind-H composed of two plasmids transfected into HEK293FT cells, D2eGFP fluorescence intensity after D-2-HG addition; assay type: cell-based; settings: ratio 0.4
Procedure: (3) The plasmid was transfected into HEK293FT cells with lipofectamine 3000; a transfection plasmid combination 1 was pCDNA3.1(+)-DhdR-KRAB and pCDNA3.1(+)-DhdO10-D2eGFP or a plasmid combination 2 was pCDNA3.1(+)-KRAB-DhdR and pCDNA3.1(+)-DhdO10-D2eGFP; 3*105/well of cells were seeded in a 12-well plate, pcDNA3.1(+)-DhdO10-D2eGFP was added at lug/well, and the ratio of the recombinant transcriptional repressor plasmid to PcDNA3.1(+)-DhdO10-D2eGFP was 0:1, 1:1, 3:1.
(4) On the next day, D-2-HG was added at concentrations of 0 mM, 1 mM, 5 mM, and 10 mM; 64 h after transfection, a fluorescence microscope was used to take pictures, the supernatant was aspirated, a fluorescence microplate reader measured fluorescence intensities, and results were shown in FIG. 2.
(1) pCDNA3.1(+)-DhdR-KRAB and pCDNA3.1(+)-DhdO10-D2eGFP were selected, and then transfected using liposomes as above; the ratio of the two plasmids was set to 0, 0.1, 0.3, 0.4, 0.5, 0.75, 1.
(2) On the next day, D-2-HG was added at concentrations of 0 mM and 5 mM; and 64 h after transfection, a fluorescence microscopy was used to take pictures, the supernatant was aspirated, and a fluorescence microplate reader measured a fluorescence intensity. […]
(2) On the next day, D-2-HG was added at concentrations of 0, 0.5, 1, 5, 10, and 20 mM; and a fluorescence microplate reader measured a fluorescence intensity.

HT1080-DHDO14 tumor = assay: HGind-H control of suicide gene in animals, HT1080 vs HT1080-DHDO14 tumors with GCV; assay type: in vivo, Balb/c nude crlj; settings: GCV 50 mg/kg per day i.p.
Procedure: (1) 18 Balb/c nude crlj which are male and 5 weeks old were purchased. HT1080 and HT-1080-DHDO14 cells were resuspended with PBS and injected at 1.5×10^6 cells/side*mouse (volume: 100 μl), where HT1080 was injected into the left backs of the mice and HT1080-DHDO14 was injected into the right backs of the mice.
(2) The mice were divided into two groups, the control group (n=8) was injected with normal saline, and the experimental group (n=10) was injected with ganciclovir (GCV).
(3) From the 5th to the 12th day of tumor model construction, each mouse in the control group was intraperitoneally injected with normal saline at 100 μl/day, and each mouse in the experimental group was intraperitoneally injected with GCV at 50 mg/kg per day. Starting from the 8th day, the long and short diameters of tumors of the mice were measured every day.
(4) The mice were killed on the 14th day and the tumors of the mice were weighed.

Row | Structure (SMILES) | fluorescence intensity (D2eGFP expression) (HEK293FT cells; 0.5 mM D-2-HG vs 0 mM group, pCDNA3.1(+)-DhdR-KRAB and DhdO7-D2eGFP) | fluorescence intensity (D2eGFP expression), dose response (HEK293FT cells; D-2-HG 0, 0.5, 1, 5, 10, 20 mM) | size of HT1080-DHDO14 tumor vs HT1080 tumor on the left side (HT1080-DHDO14 tumor; day 5 to 12) | volume of the HT1080-DHDO14 tumor vs the other three groups (HT1080-DHDO14 tumor; later stage of measurement) | weight of the HT1080-DHDO14 tumor vs the other 3 groups (HT1080-DHDO14 tumor; mice killed on the 14th day)
1 | O=C(O)CC[C@@H](O)C(=O)O [D-2-HG, D-2-hydroxyglutarate] | significant difference | as the concentration increases, the fluorescence intensity becomes larger and larger |  |  | 
2 | Nc1nc(O)c2ncn(COC(CO)CO)c2n1 [GCV, ganciclovir] |  |  | significantly smaller | significantly less | significantly less
